Data on seven compounds can be found in ChEMBL document CHEMBL1136238, “Synthesis and PDF inhibitory activities of novel benzothiazolylidenehydroxamic acid derivatives” (Bioorg Med Chem Lett, 2003).

Molecules are shown by their SMILES. ≈ marks a conversion by molar mass, not a printed value. Bounds are passed on as bounds.

For experiment [1], the target named is Peptide deformylase (Escherichia coli) (UniProt P0A6K3). Put plainly: In vitro inhibitory concentration required against peptide deformylase (PDF).
The next experiment concerns Pseudomonas aeruginosa. Put plainly: In vitro minimum inhibitory concentration required against Pseudomonas aeruginosa ATCC 9027. In kind it is functional.
The subject of another experiment is Escherichia coli. Put plainly: In vitro minimum inhibitory concentration required against Escherichia coli ATCC 25922. In kind it is functional.
The next experiment relates to Staphylococcus aureus. Put plainly: In vitro minimum inhibitory concentration required against Staphylococcus aureus ATCC 10390. Type of experiment: functional.

Sequence of Peptide deformylase (Escherichia coli) (P0A6K3 whole entry, looked up): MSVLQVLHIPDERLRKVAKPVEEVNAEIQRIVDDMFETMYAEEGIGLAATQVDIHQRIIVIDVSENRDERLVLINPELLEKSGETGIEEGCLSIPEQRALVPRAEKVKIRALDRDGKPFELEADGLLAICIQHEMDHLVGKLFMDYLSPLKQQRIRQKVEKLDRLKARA

The IC50 is the concentration that inhibits the measured activity by half. A low value points to greater potency. One may read the MIC as the lowest concentration that inhibits growth of the organism. Higher therefore signals a need for much substance. As to `CCCN1/C(=C/C(=O)NO)Sc2ccccc21`, the IC50 in experiment [1] is 8.39 µM. Besides, the results for the MIC in the experiment with Pseudomonas aeruginosa, against Escherichia coli and against Staphylococcus aureus were 100 µg/mL (≈ 399 µM), over 100 µg/mL and 10 µg/mL (≈ 39.9 µM), respectively.

Take `CCCCN1/C(=C/C(=O)O)Sc2ccccc21`: the IC50 in experiment [1] was over 100 µM. The MIC in the experiment with Pseudomonas aeruginosa, in the experiment on Escherichia coli and in the experiment on Staphylococcus aureus was over 100 µg/mL each time.

Turning to `CCCCCN1/C(=C/C(=O)NO)Sc2ccccc21`, the IC50 in experiment [1] is 9.91 µM. The MIC with Pseudomonas aeruginosa was 100 µg/mL (≈ 359 µM); against Escherichia coli it was over 100 µg/mL; with Staphylococcus aureus, 100 µg/mL (≈ 359 µM).

In the case of `CCCCC[C@H](CC(=O)NO)C(=O)N[C@H](C(=O)N1CCC[C@H]1CO)C(C)C` [ACTINONIN], the values for the MIC in the experiment with Pseudomonas aeruginosa, in the experiment with Escherichia coli and against Staphylococcus aureus were 100 µg/mL (≈ 259 µM), 50 µg/mL (≈ 130 µM) and 3 µg/mL (≈ 7.78 µM), respectively.

As to `CCCCN1/C(=C/C(=O)NO)Sc2ccccc21`, the MIC against Pseudomonas aeruginosa is 100 µg/mL (≈ 378 µM); in the experiment on Escherichia coli it was over 100 µg/mL.

`CCN1/C(=C/C(=O)NO)Sc2ccccc21` returned an IC50 in experiment [1] of over 100 µM. For the same compound, the MIC against Pseudomonas aeruginosa, in the experiment on Escherichia coli and against Staphylococcus aureus was over 100 µg/mL in each case.

As to `CCCCN1/C(=C/C(=O)NO)S(=O)(=O)c2ccccc21`, the IC50 in experiment [1] is over 100 µM. The MIC in the experiment with Pseudomonas aeruginosa, against Escherichia coli and with Staphylococcus aureus was over 100 µg/mL throughout.
